How the values were obtained:
Format in all cases: cell-based
human iPS cells [1] = assay: Glucose consumption and total cell count of human iPS cells cultured in suspension with LPA or S1P; conditions: 0.2 or 1 μg/mL, compared with BSA-ff alone; for number of cells (total cell count): Day 5, n=3 (FIG. 13); for glucose consumption: Days 2 to 5, n=3 (FIG. 12)
Experimental: Human iPS cell suspensions were prepared using substantially the same protocol as in Example 5. To each cell suspension were added LPA or S1P at a final concentration of 0.2 μg/mL or 1 μg/mL, and BSA-ff at a final concentration of 5 mg/mL and Y-27632 (Wako Pure Chemical Industries, Ltd.) at a final concentration of 10 μM. As a control, cell suspensions were prepared using the same protocol as in Example 5. That is, prepared were the cell suspensions solely containing BSA-ff at a final concentration of 5 mg/mL and Y-27632 at a final concentration of 10 μM.
The above cell suspensions were subjected to suspension culture for […] under the same conditions as in Example 5. At Day 2 of culture, the culture medium was changed every day with Essential 8™ culture medium supplemented with 5 mg/mL BSA-ff. At Days 2, 3, 4, and 5, the concentration of glucose in the culture supernatant was measured to calculate glucose consumption. In addition, at Day 5 of culture, cell aggregates were collected, dispersed using Accutase, and suspended in Essential 8™ culture medium supplemented with 5 mg/mL BSA-ff. A portion of each cell suspension was stained with trypan blue and the number of cells was counted. The above cell suspensions were centrifuged at 300 g for 5 min, the supernatant was then removed, and the cells were washed with PBS (phosphate buffered saline). Next, the cells were fixed with 4% PFA (paraformaldehyde) at room temperature for 20 min, then washed 3 times with PBS, and permeabilized with cold methanol at −20° C. overnight. After washed 3 times with PBS, the cells were blocked with 3% FBS (fetal calf serum)/PBS and stained using a fluorescently labeled anti-SOX2 antibody (Cat. No. 656110, Biolegend, Inc.) and a fluorescently labeled anti-OCT4 antibody (Cat. No. 653703, Biolegend, Inc.) at 4° C. for 1 h. After washed once with 3% FBS (fetal calf serum)/PBS, the cells were made to pass through a cell strainer. The resulting cells were analyzed on FACSVerse.
The following procedure was used to measure glucose consumption. Specifically, the culture supernatant was recovered at medium change and a bioanalyzer (Y512950), manufactured by YSI, Inc., was used to measure the remaining glucose amount. In this way, the glucose consumption was calculated.
A total cell count was measured at Day 5 of culture. The following procedure was used to measure the total cell count. Specifically, the cell aggregates that had been formed were treated with TrypLE Select for 5 to 10 min, pipetted using a blue tip to monodisperse as cells, and stained with trypan blue. After that, the number of cells was counted using a hemocytometer to determine the total cell count.

human iPS cells [2] = assay: Effect of LPA or S1P on cell aggregation of human iPS cells in suspension culture, microscopic observation; conditions: for φ, width of the widest portion of cell aggregate (average±standard deviation): 1 day, 30 aggregates; for size of spherical cell aggregates: 0.2 μg/mL, BSA-ff 5 mg/mL, Y-27632 10 μM, 1 day suspension culture (FIG. 8)
Experimental: Human iPS cells that had been cultured using the protocol of Example 1 were treated with TrypLE Select, EDTA solution, or Accutase for 3 to 5 min and were detached. After dispersed as single cells, the cells were made to pass through a cell strainer with a pore size of 40 μm (Becton, Dickinson and Company) to monodisperse as single cells. The resulting cells were suspended in Essential 8™ medium containing a final concentration of 10 μM Y-27632 (Wako Pure Chemical Industries, Ltd.). A portion thereof was then stained with trypan blue and the number of cells was counted. Suspensions containing 2×10^5 cells per ml were prepared. To each cell suspension were added lipid-free bovine serum albumin (BSA-ff; CultureSure albumin, Wako Pure Chemical Industries, Ltd.) at a final concentration of 5 mg/mL and Y-27632 (Wako Pure Chemical Industries, Ltd.) at a final concentration of 10 μM. In addition, the following lipids were each added to the cell suspension and the cells were subjected to rotary shaking culture for 1 day under the same conditions as in Example 2 to culture human iPS cells in suspension. After one day of the suspension culture, the cells were observed under a microscope.
The lipids and additives used in this study are as follows: • LPA (Lysophosphatidic acid) (1-O-9Z-octadecenoyl-sn-glyceryl-3-phosphoric acid, a sodium salt, Cat. No. 62215, Cayman, Inc.; with an oleyl group at sn-1 position).
S1P (Sphingosine-1-phosphoric acid) (2S-amino-1-(dihydrogen phosphate)-4E-octadecene-1,3R-diol, Cat. No. 62570, Cayman, Inc.)
LPA at 0.2 μg/mL or S1P at 0.2 μg/mL was added to the human iPS cell suspension.
(§1) Human iPS cell suspensions were prepared using substantially the same protocol as in Example 5. LPA was added as a sodium salt at a concentration of 0.00128 μg/mL, 0.0064 μg/mL, 0.032 μg/mL, 0.16 μg/mL, 0.8 μg/mL, 4 μg/mL, 20 μg/mL, or 100 μg/mL. To each suspension were added BSA-ff at a final concentration of 5 mg/mL and Y-27632 (Wako Pure Chemical Industries, Ltd.) at a final concentration of 10 μM. The cells were cultured in suspension for 1 day under the same conditions as in Example 5 and then observed under a microscope.
Inspected were 30 cell aggregates on an observation image obtained when the concentration of LPA was from 0.16 to 100 μg/mL. While being compared using a micrograph scale, the width (referred to as “φ”) of the widest portion of each cell aggregate was measured to calculate an average±standard deviation.
as §1, with “[…]” for “LPA”, “free form” for “sodium salt”
Inspected were 30 cell aggregates on an observation image obtained when the concentration of S1P was from 0.032 to 100 μg/mL. While being compared using a micrograph scale, the width (referred to as “φ”) of the widest portion of each cell aggregate was measured to calculate an average±standard deviation. […]

human iPS cells [3] = assay: Formation of aggregates of human iPS cells by rotary shaking suspension culture with KSR or its protein-based components; conditions: factor added instead of KSR; micrographs at Day 1 (FIG. 6)
Experimental: TkDN4-M cell line (Non-Patent Literature 1) was used as human iPS cells. The human iPS cells were seeded on cell culture dishes coated with Matrigel (Corning, Inc.) or Vitronectin (Life Technologies Japan Ltd.). A culture medium, which was mTeSR1 (STEMCELL Technologies, Inc.) or Essential 8™ (Life Technologies Japan Ltd.), was used for maintenance culture. As a cell detachment agent at the time of cell passage, TrypLE Select (Life Technologies Japan Ltd.) was used when the cells were cultured on Matrigel; and 0.02% EDTA (ethylene diamine tetraacetic acid) solution or Accutase (Life Technologies Japan Ltd.) was used when the cells were cultured on Vitronectin. In addition, when the cells were seeded, Y-27632 (Wako Pure Chemical Industries, Ltd.) at a concentration of 10 μM was added to a culture medium. The culture medium was changed every day. For experiments, human iPS cells (the number of passage was 50 or less) were used.
Human iPS cells were treated with TrypLE Select or EDTA solution for 3 to 5 min and were detached. After dispersed as single cells, the cells were made to pass through a cell strainer with a pore size of 40 μm (Becton, Dickinson and Company). […] A portion thereof was then stained with trypan blue and the number of cells was counted. […]

Row | Compound | number of cells (total cell count) (human iPS cells [1]) | glucose consumption (human iPS cells [1]) | φ, width of the widest portion of cell aggregate (average±standard deviation) (human iPS cells [2]; 0.16 μg/mL) [μm] | size of spherical cell aggregates (human iPS cells [2]) | φ, width of the widest portion of cell aggregate (average±standard deviation) (human iPS cells [2]; 0.8 μg/mL) [μm] | φ, width of the widest portion of cell aggregate (average±standard deviation) (human iPS cells [2]; 4 μg/mL) [μm] | φ, width of the widest portion of cell aggregate (average±standard deviation) (human iPS cells [2]; 20 μg/mL) [μm] | φ, width of the widest portion of cell aggregate (average±standard deviation) (human iPS cells [2]; 100 μg/mL) [μm] | diameter of cell aggregates (human iPS cells [2]; LPA 0.032 μg/mL or less, 1 day (FIG. 9)) [mm] | formation of cell aggregates (human iPS cells [2]; LPA 0.16 to 100 μg/mL, 1 day (FIG. 9)) | diameter of cell aggregates (human iPS cells [2]; S1P 0.0064 μg/mL or less, 1 day (FIG. 10)) [mm] | formation of cell aggregates (human iPS cells [2]; S1P 0.032 to 100 μg/mL, 1 day (FIG. 10)) | formation of aggregates (human iPS cells [3])
1 | 1-O-9Z-octadecenoyl-sn-glyceryl-3-phosphoric acid, a sodium salt [LPA] | larger | larger | 124.9±26.5 | about 100 μm | 68.2±9.8 | 57.2±8.7 | 39.9±8.0 | 41.6±9.9 | ≥ 1 | cell aggregates with a substantially uniform size were formed | – | – | –
2 | CCCCCCCCCCCCC/C=C/[C@@H](O)[C@@H](N)COP(=O)(O)O [S1P, 2S-amino-1-(dihydrogen phosphate)-4E-octadecene-1,3R-diol] | larger | larger | 142.4±16.4 | about 100 μm | 118.5±21.8 | 109.9±23.1 | 94.0±19.4 | 89.0±19.5 | – | – | ≥ 1 | cell aggregates with a substantially uniform size were formed | –
3 | insulin: insulin (Sigma-Aldrich Co. LLC.), lipid-free protein-based component of KSR | – | – | – | – | – | – | – | – | – | – | – | – | large aggregates
4 | transferrin: transferrin (Sigma-Aldrich Co. LLC.), lipid-free protein-based component of KSR | – | – | – | – | – | – | – | – | – | – | – | – | large aggregates

Reference: patent US20170327779A1, “METHOD FOR PRODUCING CELL AGGREGATES” (Kaneka Corporation, priority 2015, published 2017)
